Measured values: US20260306640A1, “TECHNOLOGIES TARGETING CELL STATES” (Auron Therapeutics, Inc., priority 2023, published 2026)
Entries after “also recorded” stand apart in the source; their conditions may differ. Where two headings read alike, the source gives them in different places.

Assays:
NCI-H1048 cells = assay: Cell growth inhibition, SCLC cell line NCI-H1048 (cell count, day 11); format: cell-based, human; conditions: for GI50: Homo sapiens
From the text: Among other things, provided technologies are useful for treating various diseases, disorders, or conditions. For example, in some embodiments, provided technologies are useful for treating cancer as confirmed in the present Example. […] In some embodiments, provided technologies can inhibit cell proliferation. In some embodiments, the present disclosure provides technologies for assessing various technologies, e.g., compounds, compositions, or methods. Among other things, the present Example provides technologies, e.g., cell growth inhibition assay, for assessing various technologies. […] In some embodiments, the following cell growth inhibition methods are utilized to assess provided technologies.
SCLC: SCLC cell lines NCI-H1048 and NCI-H1876 were cultured in DMEM F12 media with 5% FBS, 1% Penicillin/Streptomycin and HITES supplement (Hydrocortisone, Insulin, Transferrin, Estradiol and Sodium Selenite). NCI-H1048 cells were plated at 10,000 cells/well of a 24-well plate and NCI-H1876 cells were plated at 20,000 cells/well of a 96-well plate. Compound and media were replenished every two days out to day 11 and 10 respectively. Cells were then trypsinized and counted using either hemocytometer or an automated Countess cell counter.
In some assessments, for cell growth inhibition, cells, e.g., MOLM13, NCI-H1048, and LASCPC-01 cells, were counted using a hemocytometer or automated cell counting in triplicates. In some assessments, proliferation in NEPC organoids as measured with Cell Titer Glo reagent (Promega). Growth inhibition was determined relative to vehicle control.

[1] = system: NCI-H1048 human lung cancer xenograft; assay: NCI-H1048 human lung cancer xenograft model, tumor growth inhibition (BALB/c nude mice); format: in vivo, mouse (BALB/c nude); human tumor cells; conditions: FIG. 1
From the text: Among other things, provided technologies are useful for treating various diseases, disorders, or conditions. For example, in some embodiments, provided technologies are useful for treating cancer as confirmed in the present Example. In some embodiments, the present disclosure provides technologies for assessing various technologies, e.g., compounds, compositions, or methods. Among other things, the present Example provides technologies, e.g., xenograft model, for assessing various technologies. In some embodiments, provided technologies are assessed in tumor xenograft model. In some embodiments, provided technologies are assessed in NCI-H1048 human lung cancer xenograft model. […]
As described herein, various provided technologies are assessed in cancer xenograft models. […] A number of doses were assessed including 30 mg/kg. Assessed compounds were administered orally or via the intraperitoneal route. […]
Cell culture: NCI-H1048 tumor cells are maintained in vitro as monolayer culture in HITES Medium supplemented with 5% fetal bovine serum at 37° C. in an atmosphere of 5% CO2 in air. […] The cells growing in an exponential growth phase are harvested and counted for tumor inoculation. […]
Measurement Parameters: For routine monitoring, animals are monitored for tumor growth, behavior (e.g., mobility, food and water consumption), body weight (BW), eye/hair matting and other effects. […]

CN1C[C@H](Nc2cnn(C)c(=O)c2Br)C[C@H](c2ccc(C(=O)N3CCC(CN4CCN(c5ccc6c(c5)CN(C5CCC(=O)NC5=O)C6=O)CC4)CC3)cc2)C1 (stereo partly drawn) [Compound 22, 3-(5-(4-((1-(4-((3R,5R)-5-((5-bromo-1-methyl-6-oxo-1,6-dihydropyridazin-4-yl)amino)-1-methylpiperidin-3-yl)benzoyl)piperidin-4-yl)methyl)piperazin-1-yl)-1-oxoisoindolin-2-yl)piperidine-2,6-dione]
GI50 (NCI-H1048 cells; 264 h, NCI-H1048, day 11, cell count, read-out: H1048 GI50): 1 nM
GI50 (NCI-H1048 cells; NCI-H1048, comparison table with Ref-1, read-out: Growth GI50): 1.5 nM
cell growth in vitro (NCI-H1048 cells; NCI-H1048 cells, FIG. 1): inhibit cell growth in vitro and in vivo
tumor growth inhibition in vivo [1]: tumor growth inhibition in vivo; also recorded: inhibit cell growth in vitro and in vivo
